What is called IC50 is the midpoint of a concentration-inhibition curve.

The structures appear in SMILES notation. A value given as a limit tells only on which side of the number the result lay.

Our source for the IC50 values is patent publication US11673898B2, “Substituted inhibitors of menin-MLL and methods of use” (Kura Oncology, Inc., priority 2016, dated 2023).

The target in the test is T1, Menin MLL 4-43 (Homo sapiens, UniProt O00255).
T1 sequence (O00255 1-610): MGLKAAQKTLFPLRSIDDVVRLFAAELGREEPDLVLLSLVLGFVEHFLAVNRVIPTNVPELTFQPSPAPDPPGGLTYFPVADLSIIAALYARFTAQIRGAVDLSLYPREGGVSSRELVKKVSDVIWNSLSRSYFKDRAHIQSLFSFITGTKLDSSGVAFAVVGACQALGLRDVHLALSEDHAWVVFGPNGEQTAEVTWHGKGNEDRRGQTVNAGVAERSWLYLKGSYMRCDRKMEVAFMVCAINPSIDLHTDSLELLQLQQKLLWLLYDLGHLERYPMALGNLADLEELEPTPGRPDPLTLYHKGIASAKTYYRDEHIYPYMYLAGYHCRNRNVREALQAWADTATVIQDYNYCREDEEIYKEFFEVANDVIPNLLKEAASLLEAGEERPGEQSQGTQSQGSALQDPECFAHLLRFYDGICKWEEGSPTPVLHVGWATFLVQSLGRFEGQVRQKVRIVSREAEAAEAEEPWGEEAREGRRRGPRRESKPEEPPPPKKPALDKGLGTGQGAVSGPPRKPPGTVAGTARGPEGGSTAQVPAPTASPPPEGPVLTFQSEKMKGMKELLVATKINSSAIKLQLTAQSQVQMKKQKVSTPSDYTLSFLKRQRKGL
Description: Fluorescence polarization (FP) competition assay of the menin-MLL interaction. The note with it: fluorescence polarization assay; read-out: Menin MLL 4-43 IC50. The format is binding. (In general: In fluorescence polarisation assays a small probe gives low polarisation when free and higher when bound to something large.)

As for `Cc1c(CN2CCC(Nc3ncnc4sc(CC(F)(F)F)cc34)CC2)ccc2c1cc(C#N)n2C[C@H](C)N1CCN(C=O)CC1` [Compound 65], the IC50 is less than 0.05 µM.
For `CNS(=O)(=O)N1CCN([C@H](C)Cn2c(C#N)cc3c(C)c(CN4CCC(Nc5ncnc6sc(CC(F)(F)F)cc56)CC4)ccc32)CC1` [Compound 66], the IC50 fell in the range of 0.02 to 1 µM.
As for `Cc1c(CN2CCC(Nc3ncnc4sc(CC(F)(F)F)cc34)CC2)ccc2c1cc(C#N)n2C[C@@H](C)N1CCN(C=O)CC1` [Compound 67], the IC50 is 0.02 to 1 µM.
Turning to `CNC(=O)N1CCN([C@@H](C)Cn2c(C#N)cc3c(C)c(CN4CCC(Nc5ncnc6sc(CC(F)(F)F)cc56)CC4)ccc32)CC1` [Compound 68], the IC50 lay within 0.05 to 0.25 µM.
Regarding `Cc1c(CN2CCC(Nc3ncnc4sc(CC(F)(F)F)cc34)CC2)ccc2c1cc(C#N)n2C[C@H](C)N1CCN(S(=O)(=O)CCF)CC1` [Compound 69], the half-maximal inhibitory concentration (IC50) lay within 0.05 to 0.25 µM.
The figure for `Cc1c(CN2CCC(Nc3ncnc4sc(CC(F)(F)F)cc34)CC2)ccc2c1cc(C#N)n2C[C@H](C)N1CCN(S(=O)(=O)CF)CC1` [Compound 70] is 0.05 to 0.25 µM; for `Cc1c(CN2CCC(Nc3ncnc4sc(CC(F)(F)F)cc34)CC2)ccc2c1cc(C#N)n2C[C@@H](C)N1CCN(S(=O)(=O)CF)CC1` [Compound 71] it is more than 1 µM; for `COC(=O)N1CCN([C@@H](C)Cn2c(C#N)cc3c(C)c(CN4CCC(Nc5ncnc6sc(CC(F)(F)F)cc56)CC4)ccc32)CC1` [Compound 72] it is 0.05 to 0.25 µM.
To `Cc1c(CN2CCC(Nc3ncnc4sc(CC(F)(F)F)cc34)CC2)ccc2c1cc(C#N)n2C[C@H](C)N1CCN(S(=O)(=O)NC2CC2)CC1` [Compound 73] belongs less than 0.05 µM.
For `[2H]C([2H])(C(C)N1CCN(S(C)(=O)=O)CC1)n1c(C#N)cc2c(C)c(CN3CCC(Nc4ncnc5sc(CC(F)(F)F)cc45)CC3)ccc21` (stereo not drawn) [Compound 74], the half-maximal inhibitory concentration (IC50) lay in the range of 0.05 to 0.25 µM.
The figure for `Cc1c(CN2CCC(Nc3ncnc4sc(CC(F)(F)F)cc34)CC2)ccc2c1cc(C#N)n2CC(C)N1CCN(S(C)(=O)=O)C(C(=O)O)C1` (stereo not drawn) [Compound 82] is 0.02 to 1 µM; for `CNC(=O)C1CCN(C(C)Cn2c(C#N)cc3c(C)c(CN4CCC(Nc5ncnc6sc(CC(F)(F)F)cc56)CC4)ccc32)CC1` (stereo not drawn) [Compound 84] it is 0.05 to 0.25 µM; for `Cc1c(CN2CCC(Nc3ncnc4sc(CC(F)(F)F)cc34)CC2)ccc2c1cc(C#N)n2C[C@H](C)N1CCN(S(=O)(=O)CCO)CC1` [Compound 85] it is less than 0.05 µM.
For `Cc1c(CN2CCC(Nc3ncnc4sc(CC(F)(F)F)cc34)CC2)ccc2c1cc(C#N)n2CC(C)N1CCN(S(=O)(=O)N(C)C)CC1` (stereo not drawn) [Compound 87], the half-maximal inhibitory concentration (IC50) was in the range of 0.05 to 0.25 µM.
The figure for `Cc1c(CN2CCC(Nc3ncnc4sc(CC(F)(F)F)cc34)CC2)ccc2c1cc(C#N)n2CC(C)N1CCN(S(=O)(=O)NCCN)CC1` (stereo not drawn) [Compound 88] is less than 0.05 µM; for `Cc1c(CN2CCC(Nc3ncnc4sc(CC(F)(F)F)cc34)CC2)ccc2c1cc(C#N)n2C[C@H](C)N1CCN(S(=O)(=O)N(C)C)CC1` [Compound 89] it is less than 0.05 µM; for `Cc1c(CN2CCC(Nc3ncnc4sc(CC(F)(F)F)cc34)CC2)ccc2c1cc(C#N)n2CC(C)N1CCC(S(C)(=O)=O)CC1` (stereo not drawn) [Compound 90] it is less than 0.05 µM.
As for `Cc1c(CN2CCC(Nc3ncnc4sc(CC(F)(F)F)cc34)CC2)ccc2c1cc(C#N)n2C[C@@H](C)N1C[C@@H](C)N(S(C)(=O)=O)[C@H](C)C1` [Compound 91], the 50% inhibitory concentration (IC50) is 0.05 to 0.25 µM.
To `Cc1c(CN2CCC(Nc3ncnc4sc(CC(F)(F)F)cc34)CC2)ccc2c1cc(C#N)n2C[C@H](C)N1C[C@@H](C)C(S(C)(=O)=O)[C@H](C)C1` [Compound 92] belongs less than 0.05 µM; to `C=CC(=O)Nc1ccc(C(C)Cn2c(C#N)cc3c(C)c(CN4CCC(Nc5ncnc6sc(CC(F)(F)F)cc56)CC4)ccc32)cn1` (stereo not drawn) [Compound 93], less than 0.05 µM.
Consider `Cc1c(CN2CCC(Nc3ncnc4sc(CC(F)(F)F)cc34)CC2)ccc2c1cc(C#N)n2CC(C)N1C2CCC1CN(S(C)(=O)=O)C2` (stereo not drawn) [Compound 94], for which the concentration for half-maximal inhibition (IC50) fell in the range of 0.05 to 0.25 µM.
To `Cc1c(CN2CCC(Nc3ncnc4sc(CC(F)(F)F)cc34)CC2)ccc2c1cc(C#N)n2C[C@H](C)N1CCN(S(=O)(=O)C2CC2)CC1` [Compound 115] belongs less than 0.05 µM; to `Cc1c(CN2CCC(Nc3ncnc4sc(CC(F)(F)F)cc34)CC2)ccc2c1cc(C#N)n2C[C@H](C)N1CCN(S(=O)(=O)CC(C)C)CC1` [Compound 116], 0.05 to 0.25 µM; to `Cc1c(CN2CCC(Nc3ncnc4sc(CC(F)(F)F)cc34)CC2)ccc2c1cc(C#N)n2C[C@H](C)N1CCN(C(=O)C2CC2)CC1` [Compound 117], 0.05 to 0.25 µM.
The figure for `Cc1c(CN2CCC(Nc3ncnc4sc(CC(F)(F)F)cc34)CC2)ccc2c1cc(C#N)n2C[C@H](C)N1CCN(C(=O)C(F)(F)F)CC1` [Compound 118] is 0.02 to 1 µM.
To `CCNS(=O)(=O)N1CCN([C@@H](C)Cn2c(C#N)cc3c(C)c(CN4CCC(Nc5ncnc6sc(CC(F)(F)F)cc56)CC4)ccc32)CC1` [Compound 119] belongs less than 0.05 µM.
As to `Cc1c(CN2CCC(Nc3ncnc4sc(CC(F)(F)F)cc34)CC2)ccc2c1cc(C#N)n2C[C@H](C)N1CCN(S(=O)(=O)NCC(C)C)CC1` [Compound 120], the IC50 is 0.05 to 0.25 µM.
Turning to `Cc1c(CN2CCC(Nc3ncnc4sc(CC(F)(F)F)cc34)CC2)ccc2c1cc(C#N)n2C[C@H](C)N1CCN(S(=O)(=O)N2CCC2)CC1` [Compound 121], the half-inhibitory concentration (IC50) was in the range of 0.05 to 0.25 µM.
To `Cc1c(CN2CCC(Nc3ncnc4sc(CC(F)(F)F)cc34)CC2)ccc2c1cc(C#N)n2C[C@H](C)N1CCN(C(=O)CC(F)(F)F)CC1` [Compound 122] belongs 0.05 to 0.25 µM.
The figure for `COCCNS(=O)(=O)N1CCN([C@@H](C)Cn2c(C#N)cc3c(C)c(CN4CCC(Nc5ncnc6sc(CC(F)(F)F)cc56)CC4)ccc32)CC1` [Compound 123] is less than 0.05 µM.
The figure for `Cc1c(CN2CCC(Nc3ncnc4sc(CC(F)(F)F)cc34)CC2)ccc2c1cc(C#N)n2CC(C)N1C[C@@H](C)N(S(=O)(=O)CF)[C@H](C)C1` (stereo partly drawn) [Compound 124] is 0.05 to 0.25 µM; for `Cc1c(CN2CCC(Nc3ncnc4sc(CC(F)(F)F)cc34)CC2)ccc2c1cc(C#N)n2C[C@H](C)N1CCN(S(=O)(=O)NCC(F)F)CC1` [Compound 125] it is 0.05 to 0.25 µM; for `Cc1c(CN2CCC(Nc3ncnc4sc(CC(F)(F)F)cc34)CC2)ccc2c1cc(C#N)n2C[C@H](C)N1CCN(S(=O)(=O)CC(F)(F)F)CC1` [Compound 126] it is 0.05 to 0.25 µM.
With `Cc1c(CN2CCC(Nc3ncnc4sc(CC(F)(F)F)cc34)CC2)ccc2c1cc(C#N)n2C[C@H](C)N1CCN(S(=O)(=O)C2CCC2)CC1` [Compound 127], the IC50 was 0.05 to 0.25 µM.
To `CNS(=O)(=O)C1CCN(C(C)Cn2c(C#N)cc3c(C)c(CN4CCC(Nc5ncnc6sc(CC(F)(F)F)cc56)CC4)ccc32)CC1` (stereo not drawn) [Compound 128] belongs 0.05 to 0.25 µM; to `Cc1c(CN2CCC(Nc3ncnc4sc(CC(F)(F)F)cc34)CC2)ccc2c1cc(C#N)n2C[C@H](C)N1CCN(S(=O)(=O)NCCF)CC1` [Compound 129], less than 0.05 µM.
`Cc1c(CN2CCC(Nc3ncnc4sc(CC(F)(F)F)cc34)CC2)ccc2c1cc(C#N)n2C[C@H](C)N1CCN(S(=O)(=O)NCC(F)(F)F)CC1` [Compound 130]: the IC50 was 0.05 to 0.25 µM.
The figure for `Cc1c(CN2CCC(Nc3ncnc4sc(CC(F)(F)F)cc34)CC2)ccc2c1cc(C#N)n2C[C@H](C)N1CCN(S(=O)(=O)NCCO)CC1` [Compound 131] is less than 0.05 µM; for `COCC(=O)N1CCN([C@@H](C)Cn2c(C#N)cc3c(C)c(CN4CCC(Nc5ncnc6sc(CC(F)(F)F)cc56)CC4)ccc32)CC1` [Compound 133] it is 0.05 to 0.25 µM.
To `Cc1c(CN2CCC(Nc3nc(N)nc4sc(CC(F)(F)F)cc34)CC2)ccc2c1cc(C#N)n2C[C@H](C)N1CCN(C=O)CC1` [Compound 134] belongs less than 0.05 µM.
To `Cc1nc(NC2CCN(Cc3ccc4c(cc(C#N)n4C[C@H](C)N4CCN(C=O)CC4)c3C)CC2)c2cc(CC(F)(F)F)sc2n1` [Compound 136] belongs less than 0.05 µM; to `Cc1nc(NC2CCN(Cc3ccc4c(cc(C#N)n4C[C@H](C)N4CCN(S(=O)(=O)CF)CC4)c3C)CC2)c2cc(CC(F)(F)F)sc2n1` [Compound 137], 0.05 to 0.25 µM.
Regarding `Cc1c(CN2CCC(Nc3ncnc4sc(CC(F)(F)F)cc34)CC2)ccc2c1cc(C#N)n2C[C@H](C)N1CCN(S(=O)(=O)N2CC2)CC1` [Compound 140], the IC50 lay in the range of 0.05 to 0.25 µM.
On to `CCCNS(=O)(=O)N1CCN([C@@H](C)Cn2c(C#N)cc3c(C)c(CN4CCC(Nc5ncnc6sc(CC(F)(F)F)cc56)CC4)ccc32)CC1` [Compound 141], for which the IC50 was less than 0.05 µM.
As to `CCCCNS(=O)(=O)N1CCN([C@@H](C)Cn2c(C#N)cc3c(C)c(CN4CCC(Nc5ncnc6sc(CC(F)(F)F)cc56)CC4)ccc32)CC1` [Compound 142], the IC50 lay within 0.05 to 0.25 µM.
The figure for `Cc1c(CN2CCC(Nc3ncnc4sc(CC(F)(F)F)cc34)CC2)ccc2c1cc(C#N)n2C[C@H](C)N1CCN(C2=NCCO2)CC1` [Compound 143] is 0.05 to 0.25 µM; for `Cc1c(CN2CCC(Nc3ncnc4sc(CC(F)(F)F)cc34)CC2)ccc2c1cc(C#N)n2C[C@H](C)N1CCN(S(=O)(=O)C(F)F)CC1` [Compound 144] it is 0.05 to 0.25 µM.
`Cc1c(CN2CCC(Nc3ncnc4sc(CC(F)(F)F)cc34)CC2)ccc2c1cc(C#N)n2C[C@H](C)N1CCN(S(=O)(=O)CF)[C@H](C)C1` [Compound 145]: the IC50 fell in the range of 0.05 to 0.25 µM.
